Measured values as given in the OPERA property sets (Mansouri et al. 2018).

Settings: not given

Structure (SMILES)	boiling point	melting point	log10 Henry constant (atm·m³/mol)	log10 biodegradation half-life (days)	log10 vapour pressure (mmHg)	ready biodegradability	log10 Koa	log10 Koc (L/kg)
CC(C)c1ccc(O)c(O)c1	271 °C	78 °C						
CCC(C)OC(=O)CCC(=O)OC(C)CC (configuration not stated)	256 °C							
Cc1ccc(O)c(C(C)C)c1	228 °C	36.5 °C						
C[Si](C)(Cl)CBr	131 °C							
c1ccc2c(c1)CCC2	178 °C	-51.4 °C	-3.7	0.778	0.166			
O=C(c1ccccc1O)c1ccccc1O	333 °C	59.5 °C						
Nc1ccc(S(=O)(=O)F)cc1		68.5 °C						
CC(=O)[C@H]1CC[C@H]2[C@@H]3CC[C@H]4C[C@H](O)CC[C@]4(C)[C@H]3CC[C@]12C		174 °C						
NC(=O)OCCCl		75.5 °C						
CC(=O)OC[C@H]1OC(OC(C)=O)[C@H](OC(C)=O)[C@@H](OC(C)=O)[C@@H]1OC(C)=O (some centres not stated)		124 °C						
Cc1c(N)cccc1N	260 °C	106 °C			-2.61			
Clc1cc2c(Cl)c(Cl)c(Cl)c(Cl)c2c(Cl)c1Cl					-7.07			
CC(O)CCl (configuration not stated)	127 °C				0.69			
CCCCC(C)c1ccccc1 (configuration not stated)	208 °C							
Oc1c(Br)cc(Br)c2cccnc12		196 °C						
COc1cc(C)ccc1O	221 °C	5.5 °C	-5.88					
CCN1C[C@]2(COC)CCC(O)[C@]34C1C(O)([C@@H](OC)[C@H]23)C1(O)C[C@H](OC)[C@H]2C[C@@H]4[C@@H]1[C@H]2OC (some centres not stated)		214 °C						
Clc1ccc(-c2ccccc2Cl)cc1Cl			-3.8		-3.99			
CCC1CO1 (configuration not stated)	63.3 °C				2.26	readily biodegradable		
O=C(O)CCC(=O)c1ccc2c(c1)-c1cccc3cccc-2c13		208 °C						
c1ccc(-c2cnc(-c3ccccc3)o2)cc1	360 °C	74 °C						
CCOC(=O)c1cc2ccccc2o1	276 °C	30.5 °C						
CCCCCCCCCCCCCCCCBr	336 °C	18 °C			-4.31	readily biodegradable		
C#C[C@]1(O)CC[C@H]2[C@@H]3[C@H](C)CC4=C(CCC(=O)C4)[C@H]3CC[C@@]21C		167 °C						
CC12CC3CC(C)(C1)CC(N)(C3)C2		258 °C						

Structure (SMILES)	boiling point	melting point	log10 Henry constant (atm·m³/mol)	log10 biodegradation half-life (days)	log10 vapour pressure (mmHg)	ready biodegradability	log10 Koa	log10 Koc (L/kg)
O=Cc1cccc(Cl)c1	214 °C	17.5 °C						
CC1=NCCS1	145 °C	-101 °C						
CCC(Br)=CBr	150 °C	-49.5 °C						
Clc1cncc(Cl)c1		66 °C						
NS(=O)(=O)c1ccc(SCCCO)c([N+](=O)[O-])c1		163 °C						
Cl.Cl.O=C1c2c(O)ccc(O)c2C(=O)c2c(NCCNCCO)ccc(NCCNCCO)c21		204 °C						
Cc1ccc2oc(C)nc2c1	218 °C							
FCOC(F)(F)C(F)F	53.6 °C				2.37			
C[C@@H]1C[C@H]2[C@@H]3C[C@H](F)C4=CC(=O)C=C[C@]4(C)[C@H]3[C@@H](O)C[C@]2(C)[C@H]1C(=O)CO		188 °C						
FC(F)C(F)(F)OCC(F)(F)F	56.2 °C				2.33			
CC(C)[N+](C)(CCOC(=O)C1c2ccccc2Oc2ccccc21)C(C)C.[Br-]		160 °C						
O=[N+]([O-])c1ccc(CCl)cc1		71 °C				not readily biodegradable		
c1ccc(Oc2nc(Oc3ccccc3)nc(Oc3ccccc3)n2)cc1		234 °C						
CC(O)CBr (configuration not stated)	146 °C							
O=C(O)c1ccccc1O		158 °C			-4.09	readily biodegradable	7.44	
CC(C)=C1OC(=O)N(c2cc(OC3CCCC3)c(Cl)cc2F)C1=O		104 °C						
CC(C)(C)S	64 °C	-0.5 °C			2.26			
Cc1ccccc1CO	224 °C	38 °C						
C[C@H]1C[C@@H](OC(=O)c2ccccc2)CC(C)(C)N1		70.5 °C						
O=c1oc2ccccc2c(O)c1C(CC(O)c1ccc(Cl)cc1)c1ccc(Cl)s1 (configuration not stated)		104 °C						
O=C(O)Cc1ccc(-c2ccccc2)cc1		160 °C						
C=C(Cl)C(C)Cl (configuration not stated)	112 °C							
FCCCF	41.6 °C							
OCCN(CCO)c1nc(N2CCCCC2)c2nc(N(CCO)CCO)nc(N3CCCCC3)c2n1		163 °C						
Nc1ccccc1C(=O)O		145 °C				readily biodegradable		

Structure (SMILES)	boiling point	melting point	log10 Henry constant (atm·m³/mol)	log10 biodegradation half-life (days)	log10 vapour pressure (mmHg)	ready biodegradability	log10 Koa	log10 Koc (L/kg)
NC(=O)c1ccccc1OCC(=O)O		221 °C						
Cc1noc(NS(=O)(=O)c2ccc(N)cc2)c1C		191 °C						
OCCCCCCCCl		11 °C						
COc1c2ccoc2cc2oc(C)cc(=O)c12		144 °C						
Oc1ccc(Cc2ccc(O)cc2)cc1		162 °C				not readily biodegradable		
Cc1cc(OC(=O)N(C)C)n(C(C)C)n1					-3			
Brc1cccc(Oc2ccc(Br)c(Br)c2Br)c1					-5.66			
C=C(C)C(=O)NCO		-37 °C						
c1cnc2ccc3ncccc3c2c1		177 °C						
Cn1c(=O)c2c(ncn2C)n(C)c1=O		238 °C						
CC(=O)OCCl	116 °C							
O=C(O)Cc1ccc([N+](=O)[O-])cc1		154 °C						
COc1ccc(NC(C)=O)cc1	335 °C	131 °C						1.4
N#CSCSc1nc2ccccc2s1						not readily biodegradable		
CC(C)(C)CCO	143 °C	-60 °C			0.389			
NS(=O)(=O)c1ccc(CCCO)cc1		95.5 °C						
Ic1ccccc1I	287 °C	27 °C						
CCC1c2ccccc2-c2ccccc21				1.46				
C[C@@H](O)C(C)(C)O	175 °C							
O=S(=O)(Cl)c1ccc(Cl)cc1		51 °C						
O=C1NCCN1		131 °C						
CCC(C(=O)OC)c1ccccc1 (configuration not stated)	228 °C	77.5 °C						
CC(=O)Nc1cccnc1	326 °C	133 °C						
CCCC(=O)CCC(C)C	178 °C							
O=C1OC2(OC=C(c3ccccc3)C2=O)c2ccccc21 (configuration not stated)		154 °C						

Structure (SMILES)	boiling point	melting point	log10 Henry constant (atm·m³/mol)	log10 biodegradation half-life (days)	log10 vapour pressure (mmHg)	ready biodegradability	log10 Koa	log10 Koc (L/kg)
Cc1ccc(C)c(Cc2ccccc2)c1						not readily biodegradable		
N#Cc1ccnc2ccccc12	242 °C	104 °C						
Cn1c(=S)sc2ccccc21	335 °C	90 °C						
Cc1ccc(Cl)c(N)c1	229 °C	29.5 °C						
C=C(Br)Br	92 °C							
COC(=O)C=CC(=O)OC						readily biodegradable		
O=C(O)CCCCCc1ccccc1		23 °C						
CC(=O)CC(=O)Nc1ccc(-c2ccc(NC(=O)CC(C)=O)c(C)c2)cc1C		212 °C				not readily biodegradable		
CCCCCCCCCCCCCCCCCC(=O)OCCCC	343 °C	27 °C						
BrCC(CBr)(CBr)CBr	306 °C	163 °C				not readily biodegradable		
O=[N+]([O-])c1cccc(CO)c1		30.5 °C						
CCCCC(C(N)=O)n1nc2ccccc2n1 (configuration not stated)		102 °C						
CC(CCC(=O)O)n1nnc2ccccc21 (configuration not stated)		86 °C						
O=C(O)CCCCCC1NC(=O)CS1 (configuration not stated)		140 °C						
CCCOC(=O)c1ccc(C(=O)OCCC)nc1						not readily biodegradable		
c1ccc2c(c1)ccc1ncccc12	352 °C	94 °C			-4.25			4.64
CCCCCCCCCCCCCCC(=O)OC		18.5 °C			-3.79			
Cc1ccc2cccc(C)c2c1	263 °C	-13.9 °C						
CN(CC(=O)N1CCOCC1)Cc1c(Cl)cccc1NC(=O)c1ccccc1		123 °C						
CCN1CCCC1	104 °C							
CN(O)CCO						readily biodegradable		
CCCCCCCCCCCC(=O)OCC(O)C1OCC(O)C1O (configuration not stated)						readily biodegradable		
CCOc1ccc(C=O)cc1	249 °C	13.5 °C						
CCCCC=CC=O	166 °C							
FCC(F)(F)F	-26 °C	-101 °C	-1.3		3.7			

Structure (SMILES)	boiling point	melting point	log10 Henry constant (atm·m³/mol)	log10 biodegradation half-life (days)	log10 vapour pressure (mmHg)	ready biodegradability	log10 Koa	log10 Koc (L/kg)
O=C(Cl)c1cccc(C(F)(F)F)c1	187 °C							
O=C(O)c1cc([N+](=O)[O-])ccc1[N+](=O)[O-]								2.3
NCCOCCO	221 °C				-2.81			
C[Si](C)(C)O[Si](C)(C)O[Si](C)(C)O[Si](C)(C)O[Si](C)(C)C	232 °C	-80 °C			-0.991			
C[C@H]1[C@H]2CC[C@H]3[C@@H]4CC=C5C[C@@H](N(C)C)CC[C@]5(C)[C@H]4CC[C@]23CN1C		126 °C						
c1ccc2c(c1)Cc1ccccc1-2	295 °C	115 °C	-4.02	1.64	-3.22	not readily biodegradable	6.79	3.7
Sc1cccc2ccccc12	285 °C					not readily biodegradable		
O=S1(=O)CCCCO1		13.5 °C						
Cc1cccc(N(C)C)c1	212 °C							
Cc1cccc(NC(N)=O)c1								1.56
FC(F)(F)C(F)(F)C(F)(F)C(F)(C(F)(F)F)C(F)(F)F	57.6 °C	-119 °C						
c1ccc(CCc2ccccn2)cc1	289 °C	-3 °C						
ClC#CCl	33 °C	-66 °C						
CC(=O)c1ccccc1O	218 °C	5 °C						
CC(=CC(=O)c1ccccc1)c1ccccc1	342 °C							
CCSc1ccc2c(c1)N(CCCN1CCN(C)CC1)c1ccccc1S2		63 °C						
O=C(O)CC[N+](=O)[O-]		62 °C						
CC(=O)OCCN(CCC#N)c1ccc(N=Nc2nc3ccc([N+](=O)[O-])cc3s2)cc1		167 °C						
CC(Cl)CC(Cl)Cl (configuration not stated)	152 °C							
CCCCCCc1ccc(O)cc1O	334 °C	68 °C						
C1CSCS1	175 °C	-50 °C						

Same assay, conditions: fish

Structure (SMILES)	log10 biotransformation half-life (days)	log10 BCF
CCCCCc1ccc(-c2ccccc2)cc1	0.03	
CCCCc1cc2ccccc2c2ccccc12	0.29	
N#CSCSc1nc2ccccc2s1	-1.01	2.32
Cc1ccc(C)c(Cc2ccccc2)c1	0.45	3.14
CC(=O)CC(=O)Nc1ccc(-c2ccc(NC(=O)CC(C)=O)c(C)c2)cc1C	-1.5	0.2
BrCC(CBr)(CBr)CBr	0.76	1.94
c1ccc2c(c1)Cc1ccccc1-2	0.7	2.72
